Measured values as given in patent US7511034B2, “Dialkylhydroxybenzoic acid derivatives containing metal chelating groups and their therapeutic uses” (Samsung Electronics Co., Ltd., priority 2001, dated 2009).

Tests used:
[1] = system: ischemic neuronal degeneration; test: Protection of cell damage by ischemia (in vivo), hippocampus Cresyl violet staining; set-up: species or system Mongolian gerbils (Meriones unguiculatus); details: gerbils, 60 mg/kg P.O., 4 days reperfusion; for protective effect: 5 min carotid occlusion, pre-treated groups
Protocol: Male Mongolian gerbils (Meriones unguiculatus) weighing 80-88 g were used in the present study. Each animal was medicated P.O. with vehicle, Ebselen or various test compounds (60 mg/kg in 10% DMSO), after 30 minutes ischemic injury, respectively. 20 animals were allotted into every group. The animals were placed under general anesthesia with a mixture of 2.5% isoflurane in 33% oxygen and 67% nitrous oxide. A midline ventral incision was made in the neck. Both common carotid arteries were isolated, freed of nerve fibers, and occluded using nontraumatic aneurysm clips. Complete interruption of blood flow was confirmed by observing the central artery in eyeballs using ophthalmoscope. After five minutes of occlusion, the aneurysm clips were removed from both common carotid arteries. Restoration of blood flow (reperfusion) was observed directly under the microscope. Sham-operated controls were subjected to the same surgical procedures except that common carotid arteries were not occluded. Body temperature was monitored and maintained at 37° C.±0.5° C. during surgery and during the immediate postoperative period until the animals recovered fully from anesthesia. At the designated reperfusion time (4 days), operated animals and sham animals were killed.
Animals were perfused transcardially with phosphate-buffered saline (PBS, pH 7.4) followed by 4% paraformaldehyde in 0.1 M phosphate buffer (pH 7.4) at 4 days (n=7) after surgery. The brains were removed, and postfixed in the same fixative for 4 hours. The brain tissues were cryoprotected by infiltration with 30% sucrose overnight. Cornoy fixed specimens were cut into 30 μm sections on a cryostat. The sections were sequentially stained by Cresyl violet dye.
Images of staining in the hippocampus of each animal were captured with an Applescanner. […] All data obtained from the quantitative data were analyzed using one-way ANOVA to determine statistical significance. Bonferroni's test was used for post-hoc comparisons. P values below 0.05 or 0.01 were considered statistically significant.

[2] = system: mice; details: oral administration; cited from earlier work
[3] = even in the presence of an excess of glutathione (GSH); cited from earlier work
[4] = system: rats; details: oral administration; cited from earlier work
[5] = system: multilayer liposome (soybean phosphatidylcholine); test: Inhibition of lipid peroxidation (liposome oxidation, TBA absorbance at 532 nm); assay type: biochemical; details: liposome oxidation initiated by FeCl2, 37° C., 15 minutes; read-out: Inhibitor Concentration (IC50)
Protocol: The compounds of the present invention were tested for antioxidizing effect in terms of the repression of the radical chain reaction of a multilayer liposome.
The liposome was prepared as followings: 30 mg of commercially available soybean phosphatidylcholine (PC, Sigma Chemical Co., U.S.A.) was dissolved in 1 mL of ethanol, and 200 μL of the ethanol/PC solution was added to 10 mL of 10 mM Tris buffer including 50 mM NaCl (pH 7.0) with stirring.
The ability of a compound to inhibit oxidation of the liposome was evaluated as followings: To 400 μL of the liposomes were added the test compound (in buffer or ethanol) and histidine-FeCl3 (167:33 μM final). Oxidation was initiated by the addition of FeCl2 (33 μM final prepared in nitrogen purged water). The mixtures was shaken at 37° C. for 15 minutes. Thereafter, tubes were treated with 1 mL of 0.67% thiobabituric acid (TBA):10% trichloroacetic acid (2:1, v/v) in 0.25 N HCl solution, containing 1.5% (v/v) t-butylhydroxytoluene (BHT) to terminate oxidation. The aliquots were heated to 100° C. for 20 minutes. After ice cooling, 1 mL of chloroform was added to 1 mL supernatant from tubes and tubes were centrifuged. The absorbances of the resulting supernatant were measured at 532 nm (see: Table below).

[6] = Acute toxicity LD50 in rats; details: rat, in vivo

| Compound | IC50 [5] | also measured |
| --- | --- | --- |
| O=c1c2ccccc2[se]n1-c1ccccc1 [Ebselen] | – | protective effect [1]: 69%; LD50 [2]: ≥ 6,810 mg/kg; solubility in water [3]: very little soluble in water; LD50 [4]: ≥ 6,810 mg/kg |
| CC(C)(C)c1cc(C(=O)Nc2ccccn2)cc(C(C)(C)C)c1O [Example 1, 3,5-Di-tert-butyl-4-hydroxy-N-pyridin-2-yl-benzamide] | 11.9 µM | – |
| CC(C)(C)c1cc(C(=O)NCc2ccccn2)cc(C(C)(C)C)c1O [Example 2, 3,5-Di-tert-butyl-4-hydroxy-N-pyridin-2-yl methyl benzamide] | 12.7 µM | – |
| CC(C)(C)c1cc(C(=O)Nc2ccc(O)c3ncccc23)cc(C(C)(C)C)c1O [Example 3, 3,5-Di-tert-butyl-4-hydroxy-N-(8-hydroxyyquinolin-5-yl) benzamide] | 7.79 µM | – |
| CC(C)(C)c1cc(C(=O)Nc2nccs2)cc(C(C)(C)C)c1O [Example 4, 3,5-Di-tert-butyl-4-hydroxy-N-thiazol-2-yl benzamide] | 9.69 µM | LD50 ([6]; ip, intraperitoneal administration in rats): ≥ 800 mg/kg; LD50 ([6]; oral administration in rats): ≥ 6950 mg/kg; protective effect [1]: 91%; neuroprotective effects against ischemic neuronal degeneration compared with Ebselen [1]: more neuroprotective effects against ischemic neuronal degeneration than those of Ebselen |
| CCOC(=O)c1csc(NC(=O)c2cc(C(C)(C)C)c(O)c(C(C)(C)C)c2)n1 [Example 5, 2-(3,5-Di-tert-butyl-4-hydroxy-benzoylamino)-thiazole-4-carboxylic acid ethyl ester] | 11.1 µM | – |
| Cc1cc(C(=O)Nc2ccccn2)cc(C)c1O [Example 6, 4-Hydroxy-3,5-dimethyl-N-pyridin-2-yl-benzamide] | 122 µM | – |
| Cc1cc(C(=O)NCc2ccccn2)cc(C)c1O [Example 7, 4-Hydroxy-3,5-dimethyl-N-pyridine-2-yl methyl benzamide] | 300 µM | – |
| Cc1c(C)c2c(c(C)c1O)CCC(C)(C(=O)O)O2 (stereo not shown) [Trolox, reference compound] | 10.2 µM | – |
